{
  "source": "patent US20080025960A1",
  "about": "“Detergents with stabilized enzyme systems” (priority 2006, published 2008)",
  "target": "T1, glucose oxidase (Aspergillus niger, UniProt P13006)",
  "T1 construct": "purchased Genencor OXYGO L-5000",
  "T1 sequence (P13006 17-605)": "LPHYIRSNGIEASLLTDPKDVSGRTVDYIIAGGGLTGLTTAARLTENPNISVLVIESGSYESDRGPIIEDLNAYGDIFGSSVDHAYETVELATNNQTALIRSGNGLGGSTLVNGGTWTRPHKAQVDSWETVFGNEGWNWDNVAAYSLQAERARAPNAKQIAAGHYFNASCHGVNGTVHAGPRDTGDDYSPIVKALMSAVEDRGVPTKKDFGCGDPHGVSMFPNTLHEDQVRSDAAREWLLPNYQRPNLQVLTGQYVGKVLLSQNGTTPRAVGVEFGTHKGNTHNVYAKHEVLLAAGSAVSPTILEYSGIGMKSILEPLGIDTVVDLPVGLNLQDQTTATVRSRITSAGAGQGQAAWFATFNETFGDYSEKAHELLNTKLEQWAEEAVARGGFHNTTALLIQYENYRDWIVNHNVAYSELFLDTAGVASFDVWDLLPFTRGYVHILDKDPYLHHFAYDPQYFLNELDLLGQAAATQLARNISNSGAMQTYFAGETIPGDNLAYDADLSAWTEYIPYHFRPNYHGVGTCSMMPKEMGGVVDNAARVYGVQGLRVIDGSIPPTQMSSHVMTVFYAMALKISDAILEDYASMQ",
  "assay": "Premature hydrogen peroxide generation by glucose oxidase in control buffer or AATCC liquid detergent stock (as is) with glucose and inhibitor, dipsticks",
  "type": "biochemical",
  "details": "for Hydrogen Peroxide Generation, PPM H2O2: T = 0+, 500 PPM oxidase; for Hydrogen Peroxide Generation, PPM H2O2 / hydrogen peroxide production / H2O2 generated: as is; for Hydrogen Peroxide Generation, PPM H2O2 / premature hydrogen peroxide generation / H2O2 PPM: 500 mM glucose; for premature hydrogen peroxide generation: liquid detergent formulation, 500 PPM glucose oxidase, over 21 days; for H2O2 PPM: T = 0+, 12, 30, as is, 500 PPM enzyme, 100 mM sodium metabisulfite; for H2O2 generated: time 0+",
  "excerpt": "In this Example, experiments conducted to assess the stabilization of glucose oxidase in the presence of its substrate (i.e., glucose) and an inhibitor (i.e., sodium hydrogen sulfite) is described. In these experiments, AATCC standard detergent (American Association of Textile Chemists and Colorists Heavy Duty Liquid detergent version 2003 without brightener; key components include linear alkane sulfonate, alcohol ethoxylate, propanediol, citric acid, fatty acid, castic soda and water; purchased from TestFabrics) was used.\nIn these experiments, 100 mM Tris pH 8.3, with 0.005% TWEEN®-100 surfactant used as a positive control. […] Three two-ml tubes were weighed with 0.990 g of AATCC detergent (lot # 01282004) and another three tubes with 0.990 g of control buffer. Then, 90 mg (500 mM) of glucose substrate were added to all of the tubes. Next, 100, 50, and 10 mM sodium hydrogen sulfite (MW 106.1) were added to each tube respectively, including the control buffer and AATCC detergent control. All of the tubes were placed on a rotary plate for an hour to allow good mixing and solubilization of glucose into the detergent. Then, 500 PPM (0.5 mg, 14.88 ul) glucose oxidase (OXYGO™ L-5000, 5379 U/ml; 33.6 mg/ml; Genencor) was added to six 2-ml tubes (three with glucose/bisulfite containing control buffers and three with glucose/bisulfite containing AATCC detergent). All of the tubes were then set on the rotary plate (60 rpm) at room temperature. Hydrogen peroxide production was measured using dipsticks (peroxidase/ABTS—Baker Testrips;Baker) at various times—t=0+minutes, 12 minutes, and 30 minutes. The tube containing 100 mM bisulfite with glucose, glucose oxidase in liquid detergent was further monitored for premature generation of hydrogen peroxide further over a period of time starting at 1 hr, 12 hr, 7 days, 12 days and up to 21 days.\nIn these experiments, 100 mM Tris pH 8.3, with 0.005% TWEEN®-100 surfactant was used as a positive control. […] Three two-ml tubes were weighed with 0.990 g of AATCC detergent (lot # 01282004) and another three tubes with 0.990 g of control buffer.\nThree two-ml tubes containing 0.990 g of AATCC detergent (lot # 01282004) and another three tubes with 0.990 g of control buffer were weighed. Then, 90 mg (500 mM) glucose substrate was added to each tube. Then, 100, 50, and 10 mM sodium metabisulfite were added to each tube respectively (i.e., both control buffer and AATCC detergent-containing tubes). All of the tubes were placed on a rotary plate for an hour to allow good mixing and solubilization of glucose into the detergent. Next, 500 PPM (0.5 mg, 14.88 ul) glucose oxidase (OXYGO™ L-5000, 5379 U/ml; 33.6 mg/ml; Genencor) was added to six 2-ml tubes (three with glucose/metabisulfite containing control buffers and three with glucose/metabisulfite containing AATCC detergent). All of the tubes were then set on the rotary plate (60 rpm) at room temperature. H2O2 production was measured using dipsticks (peroxidase/ABTS), as described in Examples 1 and 2, for t=0+ minutes, 12 minutes, and 30 minutes. The tube containing 100 mM bisulfite with glucose, glucose oxidase in liquid detergent was further monitored for premature generation of hydrogen peroxide further over a period of time starting at 1 hr, 12 hr, 7 days, 12 days and up to 21 days.",
  "data": [
    {"smiles": "O=S([O-])O.[Na+]", "note": "[bisulfite, sodium hydrogen sulfite]", "values": [
      {"measurement": "Hydrogen Peroxide Generation, PPM H2O2", "setting": "AATCC Detergent, 10 mM bisulfite", "result": ">10", "unit": "PPM"},
      {"measurement": "Hydrogen Peroxide Generation, PPM H2O2", "setting": "AATCC Detergent, 50 mM bisulfite", "result": 10, "unit": "PPM"},
      {"measurement": "Hydrogen Peroxide Generation, PPM H2O2", "setting": "AATCC Detergent, 100 mM bisulfite", "result": 0, "unit": "PPM"},
      {"measurement": "Hydrogen Peroxide Generation, PPM H2O2", "setting": "Control Buffer, 10 mM bisulfite", "result": 1, "unit": "PPM"},
      {"measurement": "Hydrogen Peroxide Generation, PPM H2O2", "setting": "Control Buffer, 50 mM bisulfite", "result": 0, "unit": "PPM"},
      {"measurement": "Hydrogen Peroxide Generation, PPM H2O2", "setting": "Control Buffer, 100 mM bisulfite", "result": 0, "unit": "PPM"},
      {"measurement": "hydrogen peroxide production", "setting": "Example 3 (metabisulfite), buffer control mixture, 50 mM, various time periods tested", "result": "did not produce any hydrogen peroxide"},
      {"measurement": "hydrogen peroxide production", "setting": "Example 3 (metabisulfite), buffer control mixture, 100 mM, time periods tested", "result": "did not produce any hydrogen peroxide"},
      {"measurement": "hydrogen peroxide production", "setting": "buffer control mixture, 50 mM bisulfite, various time periods tested", "result": "did not produce any hydrogen peroxide"},
      {"measurement": "hydrogen peroxide production", "setting": "buffer control mixture, 100 mM bisulfite, time periods tested", "result": "did not produce any hydrogen peroxide"},
      {"measurement": "premature hydrogen peroxide generation", "setting": "100 mM sodium hydrogen sulfite", "result": "no premature hydrogen peroxide generation was observed"}
    ]},
    {"smiles": "O=S([O-])S(=O)(=O)[O-].[Na+].[Na+]", "note": "[sodium metabisulfite]", "values": [
      {"measurement": "H2O2 PPM", "setting": "AATCC Detergent", "result": 0, "unit": "PPM"},
      {"measurement": "H2O2 PPM", "setting": "Control Buffer", "result": 0, "unit": "PPM"},
      {"measurement": "H2O2 generated", "setting": "buffer control mixture, 10 mM metabisulfite", "result": 1, "unit": "PPM"},
      {"measurement": "H2O2 generated", "setting": "detergent mixture, 10 mM metabisulfite", "result": "> 10", "unit": "PPM"},
      {"measurement": "H2O2 generated", "setting": "detergent mixture, 50 mM metabisulfite", "result": "> 10", "unit": "PPM"},
      {"measurement": "premature hydrogen peroxide generation", "setting": "100 mM inhibitor", "result": "no premature hydrogen peroxide generation was observed"}
    ]}
  ]
}
